According to patent US20120316105A1, “Polymyxin Derivates Useful As Antibacterial Agents” (priority 2011, published 2012):
Bridge positions count the residues as written; N and C are the ends. Square brackets hold non-standard residues; d marks the D form. Peptide text beside a SMILES is read from it. * marks the point of attachment. Benzoyl(3-Ph) = O=C(c1cccc(-c2ccccc2)c1)*; Quinoline3carbonyl = O=C(c1cnc2ccccc2c1)*; X9 = N#Cc1ccc(-c2cc(C(=O)*)ccc2F)nc1; X29 = COc1cc(C(=O)*)cc(-c2ccccc2)c1; X34 = COc1ccc(-c2cc(C(=O)*)ccn2)cc1; X15 = O=C(c1cccc(-c2cccc(F)c2)c1)*; X6 = O=C(c1cccc(-c2ccc(F)cc2)c1)*; X11 = Cc1ccccc1-c1cccc(C(=O)*)c1; Dab = NCC[C@H](N)C(=O)O; Dap = NC[C@H](N)C(=O)O

How the values were obtained:
[1] = tested on: PA-1646, polymyxin-resistant clinical isolate of Pseudomonas aeruginosa; format: cell-based; settings: PA-1646, polymyxin-resistant clinical isolate of
Protocol: (§1) Minimum bactericidal concentration (MBC, mg/L), minimum inhibitory concentration (MIC, mg/L), and human renal proximal tubule epithelial cell line cytotoxicity concentration 50% (hRPTEC, TC50, micromolar) for compounds of Formula I are listed in Table 2. The compounds of Formula I were tested as the corresponding trifluoroacetate salt except for Example 1 which was tested as the sulfate salt. For Table 2 below: PMB=polymyxin B as the sulfate salt (Bedford Laboratories, pharmaceutical grade); PMB1=polymyxin B1 as the trifluoroacetate salt; Nona=polymyxin B nonapeptide as the trifluoroacetate salt. PMB1 and Nona were prepared using the solid phase methodology described in the experimental section herein.
(§2) The in vitro antibacterial activity of compounds of Formula I was evaluated by MIC testing according to Clinical and Laboratory Standards Institute (CLSI). See: Clinical and Laboratory Standards Institute. Methods for Dilution Antimicrobial Susceptibility Tests for Bacteria that Grow Aerobically; Approved Standard-Eighth Edition. CLSI document M7-A8 [ISBN 1-56238-689-1]. Clinical and Laboratory Standards Institute, 940 West Valley Road, Suite 1400, Wayne, Pa. 19087-1898 USA, 2006; also Clinical and Laboratory Standards Institute. Performance Standards for Antimicrobial Susceptibility Testing; Twentieth Informational Supplement. CLSI document M100-S20 [ISBN 1-56238-716-2]. Clinical and Laboratory Standards Institute. Methods for Determining Bactericidal Activity of Antimicrobial Agents; Approved Guideline. CLSI document M26-A (ISBN 1-56238-384-1). CLSI, 940 West Valley Road, Suite 1400, Wayne, Pa. 19087-1898 USA, 1999.
PA-1646 is a polymyxin-resistant clinical isolate of Pseudomonas aeruginosa obtained from JMI labs (www.jmilabs.com);

[2] = tested on: AB-1649, polymyxin-resistant clinical isolate of Acinetobacter baumannii; format: cell-based; settings: AB-1649, polymyxin-resistant clinical isolate of
Protocol: as §1, §2
(§3) The MIC determination is a standard laboratory method for evaluating the antibacterial activity of a compound. The MIC represents the lowest drug concentration that inhibits visible growth of bacteria following overnight incubation. […] Typically, the drug concentration range is broken down into 2-fold increments (e.g. 0.06 mg/L, 0.12 mg/L, 0.25 mg/L, 0.50 mg/L, 1.0 mg/L, etc.) and the various drug concentrations are all individually incubated overnight with approximately the same number of bacteria. The MIC is then determined by visually inspecting the drug effect at each concentration, and identifying the lowest drug concentration that has inhibited bacterial growth as compared to the drug free control. Typically, bacteria continue to grow at drug concentrations lower than the MIC and don't grow at concentrations at and above the MIC.
(§4) The MIC values described in Table 2 below were derived from assays wherein each test compound was evaluated in duplicate. In cases where the duplicate values varied by 0-2-fold, the lower of the two values was reported below. Generally speaking, if the duplicate values varied by more than 2-fold, the assay was considered non-valid and was repeated until the variation between duplicate runs was ≦2-fold. In line with the CLSI guidelines referred to above, both control organisms and reference compounds were utilized in each MIC assay to provide proper quality control. MIC values generated with these control organisms and reference compounds were required to fall within a defined range for the assay to be considered valid and be included herein. Those skilled in the art will recognize that MIC values can and do vary from experiment to experiment. Generally speaking, it should be recognized that MIC values often vary +/−2-fold from experiment to experiment. While a single MIC is reported for each compound and each microorganism, the reader should not conclude that each compound was only tested once. Several of the compounds were subjected to multiple tests. The data reported in Table 2 is reflective of the compounds relative activity and different MICs may have been generated on these occasions in line with the guidelines described above.
(§5) The following bacterial strains were used in these MIC determinations: […]

[3] = tested on: AB-3167, clinical isolate of Acinetobacter baumannii; format: cell-based; settings: AB-3167, clinical isolate of
Protocol: as §1, §2, §3, §4, §5

[4] = tested on: PA-1646, polymyxin-resistant clinical isolate of Pseudomonas aeruginosa; format: cell-based; settings: PA-1646, polymyxin-resistant clinical isolate of; remark: listed apart in the source
Protocol: as §1, §2, §3, §4, §5

[5] = tested on: Pseudomonas aeruginosa strain PA01; format: cell-based; settings: strain
Protocol: as §1, §2, §3, §4, §5

[6] = tested on: AB-1649, polymyxin-resistant clinical isolate of Acinetobacter baumannii; format: cell-based; settings: AB-1649, polymyxin-resistant clinical isolate of; remark: listed apart in the source
Protocol: as §1, §2
AB-1649 is a polymyxin-resistant clinical isolate of Acinetobacter baumannii obtained from JMI labs (www.jmilabs.com);

[7] = tested on: EC-1, mouse virulent strain of Escherichia coli; format: cell-based; settings: E. coli EC-1; overnight incubation, lower of duplicate values; trifluoroacetate salt (Example 1 and PMB sulfate)
Protocol: as §1, §2, §3, §4
The following bacterial strains were used in these MIC determinations:
EC-1 is a mouse virulent strain of Escherichia coli.

[8] = Cytotoxicity assay (LDH release), hRPTEC; format: cell-based, human; settings: human
Protocol: as §1
Human Renal Proximal Tubule Epithelial cells (hRPTEC) were obtained from Lonza (Walkersville, Md., USA) and cultured in REGM (Renal Epithelial Cell Basal Medium supplemented with human epithelial growth factor, hydrocortisone, epinephrine, insulin, triiodothyronine, transferrin, gentamycin/amphotericin-B, and fetal bovine serum). The hRPTEC cells were seeded into 96-well plates and incubated at 37° C. in 5% CO2. Following a growth period of 72 hours, cells were treated with compounds at 100, 67, 44, 30, 20 and 13 micromolar for 24 hours at 37° C. in 5% CO2. The cell supernatant was then harvested for determination of LDH (lactate dehydrogenase) production. The Cytotoxicity Detection Kit from Roche was used for the measurement of LDH activity released from damaged cells. The Toxic Concentration 50% (TC50, micromolar) values were determined for each compound and compared to the control compounds (polymyxin B was used as a positive control and polymyxin B nonapepetide was used as negative control).

Compound	PA-1646 MBC [1]	AB-1649 MIC [2]	AB-3167 MIC [3]	PA-1646 MIC [4]	PA01 MIC [5]	AB-1649 MBC [6]	EC-1 MIC [7]	CC50 at 24 h [8]
COc1cc(C(=O)N[C@@H](CCN)C(=O)N[C@H](C(=O)N[C@@H](CN)C(=O)N[C@H]2CCNC(=O)[C@H]([C@@H](C)O)NC(=O)[C@H](CCN)NC(=O)[C@H](CCN)NC(=O)[C@H](CC(C)C)NC(=O)[C@@H](Cc3ccccc3)NC(=O)[C@H](CCN)NC2=O)[C@@H](C)O)cc(-c2ccccc2)c1 [Example 17] (X29-[Dab]T[Dap][Dab][Dab][dF]L[Dab][Dab]T; lactam 4-C)	4 µg/mL	4 µg/mL	0.25 µg/mL	2 µg/mL	0.5 µg/mL	8 µg/mL	0.25 µg/mL	26 µM
CC(C)C[C@@H]1NC(=O)[C@@H](Cc2ccccc2)NC(=O)[C@H](CCN)NC(=O)[C@@H](NC(=O)[C@H](CN)NC(=O)[C@@H](NC(=O)[C@H](CCN)NC(=O)c2cccc(-c3cccc(F)c3)c2)[C@@H](C)O)CCNC(=O)[C@H]([C@@H](C)O)NC(=O)[C@H](CCN)NC(=O)[C@H](CCN)NC1=O [Example 18] (X15-[Dab]T[Dap][Dab][Dab][dF]L[Dab][Dab]T; lactam 4-C)	1 µg/mL	2 µg/mL	0.5 µg/mL	1 µg/mL	1 µg/mL	2 µg/mL	0.25 µg/mL	22 µM
CC(C)C[C@@H]1NC(=O)[C@@H](Cc2ccccc2)NC(=O)[C@H](CCN)NC(=O)[C@@H](NC(=O)[C@H](CN)NC(=O)[C@@H](NC(=O)[C@H](CCN)NC(=O)c2cccc(-c3ccccc3)c2)[C@@H](C)O)CCNC(=O)[C@H]([C@@H](C)O)NC(=O)[C@H](CCN)NC(=O)[C@H](CCN)NC1=O [Example 19] ({Benzoyl(3-Ph)}-[Dab]T[Dap][Dab][Dab][dF]L[Dab][Dab]T; lactam 4-C)	2 µg/mL	2 µg/mL	0.25 µg/mL	1 µg/mL	0.5 µg/mL	2 µg/mL	0.25 µg/mL	21 µM
CC(C)C[C@@H]1NC(=O)[C@@H](Cc2ccccc2)NC(=O)[C@H](CCN)NC(=O)[C@@H](NC(=O)[C@H](CN)NC(=O)[C@@H](NC(=O)[C@H](CCN)NC(=O)c2cccc(-c3ccc(F)cc3)c2)[C@@H](C)O)CCNC(=O)[C@H]([C@@H](C)O)NC(=O)[C@H](CCN)NC(=O)[C@H](CCN)NC1=O [Example 20] (X6-[Dab]T[Dap][Dab][Dab][dF]L[Dab][Dab]T; lactam 4-C)	1 µg/mL	2 µg/mL	0.25 µg/mL	1 µg/mL	0.5 µg/mL	2 µg/mL	0.25 µg/mL	18 µM
Cc1ccccc1-c1cccc(C(=O)N[C@@H](CCN)C(=O)N[C@H](C(=O)N[C@@H](CN)C(=O)N[C@H]2CCNC(=O)[C@H]([C@@H](C)O)NC(=O)[C@H](CCN)NC(=O)[C@H](CCN)NC(=O)[C@H](CC(C)C)NC(=O)[C@@H](Cc3ccccc3)NC(=O)[C@H](CCN)NC2=O)[C@@H](C)O)c1 [Example 21] (X11-[Dab]T[Dap][Dab][Dab][dF]L[Dab][Dab]T; lactam 4-C)	2 µg/mL	2 µg/mL	0.25 µg/mL	2 µg/mL	1 µg/mL	2 µg/mL	0.25 µg/mL	15 µM
COc1ccc(-c2cc(C(=O)N[C@@H](CCN)C(=O)N[C@H](C(=O)N[C@@H](CN)C(=O)N[C@H]3CCNC(=O)[C@H]([C@@H](C)O)NC(=O)[C@H](CCN)NC(=O)[C@H](CCN)NC(=O)[C@H](CC(C)C)NC(=O)[C@@H](Cc4ccccc4)NC(=O)[C@H](CCN)NC3=O)[C@@H](C)O)ccn2)cc1 [Example 22] (X34-[Dab]T[Dap][Dab][Dab][dF]L[Dab][Dab]T; lactam 4-C)	8 µg/mL	2 µg/mL	0.25 µg/mL	2 µg/mL	0.5 µg/mL	2 µg/mL	0.25 µg/mL	78 µM
CC(C)C[C@@H]1NC(=O)[C@@H](Cc2ccccc2)NC(=O)[C@H](CCN)NC(=O)[C@@H](NC(=O)[C@H](CN)NC(=O)[C@@H](NC(=O)[C@H](CCN)NC(=O)c2cnc3ccccc3c2)[C@@H](C)O)CCNC(=O)[C@H]([C@@H](C)O)NC(=O)[C@H](CCN)NC(=O)[C@H](CCN)NC1=O [Example 23] (Quinoline3carbonyl-[Dab]T[Dap][Dab][Dab][dF]L[Dab][Dab]T; lactam 4-C)	4 µg/mL	4 µg/mL	0.5 µg/mL	4 µg/mL	0.25 µg/mL	8 µg/mL	0.125 µg/mL	> 100 µM
CC(C)C[C@@H]1NC(=O)[C@@H](Cc2ccccc2)NC(=O)[C@H](CCN)NC(=O)[C@@H](NC(=O)[C@H](CN)NC(=O)[C@@H](NC(=O)[C@H](CCN)NC(=O)c2ccc(F)c(-c3ccc(C#N)cn3)c2)[C@@H](C)O)CCNC(=O)[C@H]([C@@H](C)O)NC(=O)[C@H](CCN)NC(=O)[C@H](CCN)NC1=O [Example 24] (X9-[Dab]T[Dap][Dab][Dab][dF]L[Dab][Dab]T; lactam 4-C)	16 µg/mL	4 µg/mL	0.5 µg/mL	4 µg/mL	1 µg/mL	8 µg/mL	0.25 µg/mL	> 100 µM
